Measured values reported in patent US12252472B1, “Barbituric acid derivatives, their preparation and use thereof as leukocyte transmigration inhibitors and for treating inflammatory diseases, autoimmune diseases and cancer” (BAR-ILAN UNIVERSITY, priority 2017, dated 2025).

Key:
[1] = test system: mouse monocytes / macrophages from the abdominal cavity; experiment: Ten-color flow cytometry (CD115, F4/80) of peritoneal cells from the peritonitis model; assay type: in vivo
Experimental: After inducing the inflammation (peritonitis), compound of Formula 2 was injected at a concentration of 12.5 mg/kg (DMSO, 01% in PBS, IP), twice (one day after the other). The next day, mice were sacrificed and the peritoneal liquid was collected from the control and treated mice (n=3 for each group). Two assays were conducted for the estimation of the possible anti-inflammatory effect of compound of Formula 2: leukocyte counting (the total amount and the calculation of the percentage of different leukocyte fractions) and a flow cytometry.
Flow cytometry based on a fluorescent protein marker (CD115) was selected for the analysis. It is generated by monocytes and localized to their plasma membrane as described by Yang, J. et al. (Monocyte and macrophage differentiation: circulation inflammatory monocyte as biomarker for inflammatory diseases. Biomark Res, 2014. 2(1): p. 1). This protein is able to specifically recognize and bind a F4/80 antibody that activates the immune system macrophages (Lin, H. H., et al., The macrophage F4/80 receptor is required for the induction of antigen-specific efferent regulatory T cells in peripheral tolerance. Journal of Experimental Medicine, 2005. 201(10): p. 1615-1625).
Cell viability before the FACS experiment was assessed by incubation in the amine-reactive dye Aqua (Invitrogen) (1:500) dilution in Ca^2+ and Mg^2+-free PBS) for 30 minutes in the dark at room temperature (RT), followed by a single wash in PBS. For all experiments, cells were incubated in 0.5 μg Fc Block (BD Biosciences) for 10 minutes at room temperature (RT). Surface staining was performed in the dark for 30 minutes at 4° C. in staining buffer. A surface marker (CD115, APC clone AFS98, in dilution 1:100, from eBioscience) was used. […] Fluorescence minus one (FMO) controls were used for gating analyses to distinguish positively from negatively staining cell populations. […] Compensation matrices were calculated and applied using FlowJo software (Tree Star). […]

[2] = test system: DBA/1 mice; experiment: Collagen induced arthritis (CIA) model; assay type: in vivo, mouse
Experimental: Male DBA/lOlaHsd mice (7-8 weeks of age) were injected with CII (Type II collagen)+CFA (complete Frennd's adjuvant) emulsion on Day 0 (S.C.) to persuade collagen induced arthritis (CIA). On Day 21 the animals receive the same amount of the emulsion as a booster. Twice between Days 0 and 18 after immunization (before enrollment begins), both hind paws of all mice were measured using calipers to establish baseline values for paw thickness. On Day 22 mice were enrolled into groups when they first shown paw swelling and treatment was initiated. A working formulation of compound of Formula 2 was administered by IP injections at 15 mg/kg dose at q3w regiment. Mock treated (vehicle) control group was administered IP with the same volume and regiment as a treatment group. Administration was performed at a constant volume dosage based on individual body weight. The severity of CIA was monitored daily. The CIA scoring is on the scale of 0 to 16 (0 to 4 for each paw, adding the scores for all 4 paws). On day 43 (24 hours post last dose administration) all paws thickness was measured and mice were euthanized. All limbs from each mouse were placed in individual labeled tubes, fixed in 4% buffered formalin, paraffin embedded and sectioned. Histological score was assessed using hematoxylin and eosin (H&E) stained sections. Joints were scored for inflammation, cartilage damage, pannus formation, and bone resorption on a scale of 0 to 3 for each readout. Two-way ANOVA statistical analysis was performed.

[3] = test system: HUVECs intercellular junctions; experiment: Phenotypic changes at endothelial junctions (MesenFlow system); assay type: cell-based, human
From the text: This manifestation was termed “Fluttering”. Fluttering was characterized by a rapid fluctuating movement at the intercellular junctions of adjacent HUVECs, and predominantly within tri-cellular corners. This was characterized by a rapid change in phase at the cellular edges consistent with a physical movement that was associated with no leukocytes adhesion or migration within these regions (FIG. 27). […] This observation is therefore representative of a phenotype that is indicative of a disruption in leukocyte transmigration.

[4] = abdominal cavity, treated vs non-treated mice, FACS

SMILES: COC(=O)c1ccc(COc2c(C=C3C(=O)NC(=O)NC3=O)cccc2C(C)(C)C)cc1 [Formula 2, methyl 4-((2-(tert-butyl)-6-((2,4,6-trioxotetrahydropyrimidin-5(2H)-ylidene)methyl)phenoxy)methyl) benzoate]
- monocyte phenotype, CD115 expression (shift in pattern of gates 1-4) ([1]; C57BL/6 mouse monocytes): reduced differentiation
- amount of activated (high macrophages) [1, 4]: considerably decreased
- level of non-activated (low macrophage) [1, 4]: elevated
- Histological score of joints ([2]; 15 mg/kg IP q3w): significantly reduced
- fore and hind limb thickness ([2]; 15 mg/kg IP q3w, day 43): significantly reduced
- CIA score ([2]; FIG. 23 legend: 15 mg/kg SC): therapeutic effect
- histological evaluation of talus and calcaneum joint sections ([2]; representative sections, treated mouse (FIG. 25B)): No cartilage and bone and erosion and profuse infiltration of inflammatory cells are present
- junctional integrity ([3]; HUVECs co-culture): maintained
- Fluttering at HUVEC intercellular junctions ([3]; all HUVECs co-culture experiments): observed
